We go through two molecules from patent publication US6414222B1, “Gene combinations for herbicide tolerance in corn” (Regents of the University of Minnesota, priority 1993, dated 2002).

Test [1] concerns control (2167-9/2160-154 unselected) plants. Put plainly: Whole plant sethoxydim spray, greenhouse, control regenerated plants. Type of test: in vivo, maize. Particulars: greenhouse-grown regenerated plants, sprayed. The source says: (§1) Groups of eight control (2167-9/2160-154 unselected) and eight S-2 plants were sprayed with either 0.0, 0.01, 0.05, 0.11, 0.22 or 0.44 kg/ha sethoxydim to determine whole plant sethoxydim-tolerance of greenhouse-grown plants. Control plants were killed by 0.05 kg/ha or more sethoxydim.

Test [2] relates to plants regenerated from the S-2 cell line. Put plainly: Whole plant sethoxydim spray, greenhouse, S-2 regenerated plants. Type of test: in vivo, maize.
Source text: as §1

Test [3] has as its system progeny of 2167-9/2160-154 control plants. Put plainly: Sethoxydim treatment of progeny seedlings, greenhouse. Type of test: in vivo, maize. Particulars: seedlings treated at 3-4 leaf stage, rated two weeks after treatment. The method, then:
Seeds obtained by the crossing procedure described above were viable and germinated normally. Seeds from thirty S-2 selfed plants and fifteen 2167-9/2160-154 control plants were planted in 25×50 cm trays of soil (28 seeds from each plant in one tray) and grown in the greenhouse. Seedlings at the 3-4 leaf stage were treated with 0.1, 0.44, and 1.1 kg/ha sethoxydim and evaluated for visual herbicide damage and shoot height. Based on visual rating of herbicide damage two weeks after treatment, selfed progeny of S-2 plants segregated approximately 1:2:1 for healthy, uninjured plants: to plants showing partial injury: to dead plants, respectively, at 0.44 and 1.1 kg/ha sethoxydim treatments. All control progeny of 2167-9/2160-154 control plants were killed by 0.1 kg/ha and greater levels of sethoxydim. […] Similar tests were conducted on progeny of S-2 plants crossed to the other inbreds. In all cases, these test cross progeny treated with 0.44 kg/ha sethoxydim segregated 1:1 for growing shoots versus dead shoots whether S-2 plants were used as male or female parents. […] In all cases, control plants crossed to the other inbreds were killed and therefore sethoxydim-sensitive.

The target in another test is ACCase of S-2 tissue (Zea mays, UniProt Q41743). Put plainly: ACCase activity, herbicide inhibition, S-2 tissue. The test is classed as biochemical, maize. The note with it: on concentration basis. The method, then:
Maize chloroplasts, isolated as described above, were suspended in buffer C (0.1 M Tricine-KOH, pH 8.0; 0.3 M glycerol, and 1 mM DTT) and homogenized in a glass tissue homogenizer. The disrupted chloroplast fraction was centrifuged at 16,000 g for 15 minutes. The supernatant was desalted on a Sephadex G-25 column (1.5×5 cm equilibrated with 0.1 M Tricine-KOH, pH 8.0; and 0.3 M glycerol) and assayed directly. ACCase activity (B. J. Nikolau et al., Arch. Biochem. Biophys., 211, 605-612 (1981)) was assayed at 30° C. in a 0.2 ml volume which contained 1 mM ATP, 3 mM acetyl coenzyme A, 2.5 mM MgCl2, 50 mM KCl, 0.5 mM DTT, and 15 mM [^14C]NaHCO3 (0.17 mCi/mmol). Reactions were initiated by addition of acetyl coenzyme A and stopped by addition of 25 μl of 12 N HCl. Product formation was determined by the radioactivity found in an acid stable fraction by liquid scintillation spectrometry. Enzyme activity was linear for 15 minutes.
Assays were conducted to determine if ACCase extracted from cell line S-2 was altered with respect to herbicide activity. ACCase activity of control tissue was 50% inhibited either by 1.5 μM sethoxydim, or by 0.25 μM haloxyfop. ACCase activity of S-2 tissue was inhibited 50% either by 70 μM sethoxydim, or by 1.8 μM haloxyfop, indicating at least 40-fold and 7-fold decreases in herbicide sensitivity on concentration basis, respectively.

Where only a bound is given, the exact number is not on record here.

`CCCC(=NOCC)C1=C(O)CC(CC(C)SCC)CC1=O` (stereo not drawn) [Sethoxydim, 2-[1-(ethoxyimino)-butyl]-5-[2-(ethylthio)propyl]-3-hydroxy-2-cyclohexen-1-one]: the “Rate that killed control plants” value in test [1] was at least 0.05 kg/ha. Also, the “Survival of S-2 plants” value in test [2] (0.44 kg/ha sethoxydim) was “survived”. For the same molecule, in test [2] (14 days after treatment with 0.44 kg/ha sethoxydim), the “Shoot height of regenerated S-2 plants” value was “only slightly reduced”. Besides, the “Fold more tolerance of S-2 plants than control” value in test [2] (whole plant spray) is “at least 20 fold”. Moreover, in test [3], the “Rate that killed all control progeny” value is at least 0.1 kg/ha.

On to `CC(Oc1ccc(Oc2ncc(C(F)(F)F)cc2Cl)cc1)C(=O)O` (stereo not drawn) [Haloxyfop, 2-[4-[[3-chloro-5-(trifluoromethyl)-2-pyridinyl]oxy]phenoxy]-propanoic acid], for which, at ACCase of S-2 tissue, the “Fold decrease in herbicide sensitivity of ACCase, S-2 versus control” value is recorded as at least 7 fold.
